This passage reports IC50 results from patent US20220332699A1 (SAGE THERAPEUTICS, INC., priority 2019, published 2022).

Chain of CYP46A1 (Q9Y6A2 whole entry): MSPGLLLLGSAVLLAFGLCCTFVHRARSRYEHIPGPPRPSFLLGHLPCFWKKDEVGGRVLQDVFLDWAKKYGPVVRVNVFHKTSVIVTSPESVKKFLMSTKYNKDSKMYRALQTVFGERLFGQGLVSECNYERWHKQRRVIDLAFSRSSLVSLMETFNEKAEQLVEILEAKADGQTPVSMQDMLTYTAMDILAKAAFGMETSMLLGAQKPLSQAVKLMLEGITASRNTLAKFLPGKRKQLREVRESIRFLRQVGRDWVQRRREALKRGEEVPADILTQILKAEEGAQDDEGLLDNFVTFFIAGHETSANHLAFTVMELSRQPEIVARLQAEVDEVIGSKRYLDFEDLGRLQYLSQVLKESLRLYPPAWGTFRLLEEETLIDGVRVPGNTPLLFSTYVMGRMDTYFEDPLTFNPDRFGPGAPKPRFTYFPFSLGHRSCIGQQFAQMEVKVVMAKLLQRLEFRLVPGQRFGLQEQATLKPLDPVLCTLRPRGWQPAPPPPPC

One assay has as its target CYP46A1 (Homo sapiens, UniProt Q9Y6A2). The assay is described as follows: CYP46A1 Enzyme Assay 2 (testosterone substrate, HPLC-MS). The class given is biochemical.
Details: not given
In a few lines: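 CYP46A1 (5 μM final) with testosterone ([…] final) preincubated with compound 30 min at 37° C, reaction started with NADPH-generating system and run 15 min at 37° C. Quenched in methanol containing diclofenac internal standard; product read by HPLC-MS.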
As for `N#CC1(c2ccccc2)CCN(C(=O)c2cccnc2-c2ccncn2)CC1` [Compound A256, 4-phenyl-1-(2-(pyrimidin-4-yl)nicotinoyl)piperidine-4-carbonitrile], the IC50 is more than 1000 nM.

Still in this assay, the particulars now being: read-out: IC50 (CYP46A1 inhibitory activity).
`C[C@H](c1c(F)cccc1F)C1(C#N)CCN(C(=O)c2cccnc2-c2ccncc2)CC1` [Compound A245, (S)-1-([2,4′-bipyridine]-3-carbonyl)-4-(1-(2,6-difluorophenyl)ethyl)piperidine-4-carbonitrile]: the IC50 is less than 100 nM.

For the compound `C[C@@H](c1c(F)cccc1F)C1(C#N)CCN(C(=O)c2cccnc2-c2ccncc2)CC1` [Compound A246, (R)-1-([2,4′-bipyridine]-3-carbonyl)-4-(1-(2,6-difluorophenyl)ethyl)piperidine-4-carbonitrile], the IC50 was less than 100 nM. As to `C[C@@H]1CN(C(=O)c2cccnc2-c2ccncn2)CC[C@@]1(C#N)Cc1ccc(F)cc1` [Compound A247, (3S,4S)-4-(4-fluorobenzyl)-3-methyl-1-(2-(pyrimidin-4-yl)nicotinoyl)piperidine-4-carbonitrile], the IC50 was less than 100 nM. `C[C@H]1CN(C(=O)c2cccnc2-c2ccncn2)CC[C@]1(C#N)Cc1ccc(F)cc1` [Compound A248, (3R,4R)-4-(4-fluorobenzyl)-3-methyl-1-(2-(pyrimidin-4-yl)nicotinoyl)piperidine-4-carbonitrile]: the IC50 is less than 100 nM. The same measure, in the same setting: to `Cc1ccc(C(=O)N2CCC(C#N)(Cc3ccc(F)cc3)CC2)c(-c2ccncn2)n1` [Compound A249, 4-(4-fluorobenzyl)-1-(6-methyl-2-(pyrimidin-4-yl)nicotinoyl)piperidine-4-carbonitrile] belongs more than 1000 nM; to `C[C@@H](c1ccc(C(F)(F)F)cc1)C1(C#N)CCN(C(=O)c2cccnc2-c2ccncn2)CC1` [Compound A250, (S)-1-(2-(pyrimidin-4-yl)nicotinoyl)-4-(1-(4-(trifluoromethyl)phenyl)ethyl)piperidine-4-carbonitrile], less than 100 nM.

Take `C[C@H](c1ccc(C(F)(F)F)cc1)C1(C#N)CCN(C(=O)c2cccnc2-c2ccncn2)CC1` [Compound A251, (R)-1-(2-(pyrimidin-4-yl)nicotinoyl)-4-(1-(4-(trifluoromethyl)phenyl)ethyl)piperidine-4-carbonitrile]: the IC50 was less than 100 nM. Same read-out and setting: the same measure for `N#C[C@@]1(Cc2ccc(F)cc2)C[C@H]2CC[C@@H](C1)N2C(=O)c1cccnc1-c1ccncn1` [Compound A252, (1R,3r,5S)-3-(4-fluorobenzyl)-8-(2-(pyrimidin-4-yl)nicotinoyl)-8-azabicyclo[3.2.1]octane-3-carbonitrile]: 100 to 1000 nM; for `N#C[C@]1(Cc2ccc(F)cc2)[C@@H]2CC[C@H]1CN(C(=O)c1cccnc1-c1ccncn1)C2` [Compound A253, (1R,5S,8r)-8-(4-fluorobenzyl)-3-(2-(pyrimidin-4-yl)nicotinoyl)-3-azabicyclo[3.2.1]octane-8-carbonitrile]: more than 1000 nM; for `N#CC1(Cc2ccc(F)cc2)CCN(C(=O)c2cc(C3CC3)ccc2-c2ccncn2)CC1` [Compound A254, 1-(5-cyclopropyl-2-(pyrimidin-4-yl)benzoyl)-4-(4-fluorobenzyl)piperidine-4-carbonitrile]: less than 100 nM.

Regarding `N#CC1(Cc2ccc(C(F)(F)F)cc2F)CCN(C(=O)c2cccnc2-c2ccncc2)CC1` [Compound A255, 1-([2,4′-bipyridine]-3-carbonyl)-4-(2-fluoro-4-(trifluoromethyl)benzyl)piperidine-4-carbonitrile], the IC50 is less than 100 nM. Still for that read-out and setting: to `N#CC1(Cc2cc(F)ccc2F)CCN(C(=O)c2cccnc2-c2ccncn2)CC1` [Compound A261, 4-(2,5-difluorobenzyl)-1-(2-(pyrimidin-4-yl)nicotinoyl)piperidine-4-carbonitrile] belongs less than 100 nM. The same measure, in the same setting: the same measure for `N#CC1(Cc2ccccc2C(F)(F)F)CCN(C(=O)c2cccnc2-c2ccncn2)CC1` [Compound A262, 1-(2-(pyrimidin-4-yl)nicotinoyl)-4-(2-(trifluoromethyl)benzyl)piperidine-4-carbonitrile]: less than 100 nM.

The IC50 is the concentration that gives 50% inhibition.
